Test results reported in patent publication US9050310B2, “Treatment of ocular lesions” (priority 2004, dated 2015).

How the values were obtained:
IL-6 = test: UVB-mediated induction of IL-6 in pterygium epithelial cells, sandwich immunoassay of supernatants; type: cell-based, human; conditions: for IL-6 production post-radiation (effect in words): 10 μM PD98059, 1 μM SB202190, 1 μM SB203580, 1 μM hydrocortisone
Method: (§1) Pterygium-derived epithelial cells (PEC) were seeded at 1×10^6 cells in 100 mm tissue culture dishes (Corning, N.Y.) or at a density of 1.5×10^5 cells per well in 6-well plates (Nunc, Denmark) and grown in the presence of 10% FBS/EMEM. Once cells reached semi-confluence, the medium was aspirated, cells washed three times with sterile PBS, and left in serum-free medium for 16 hrs as previously described (Di Girolamo N., et al. Prog Retin Eye Res. 2004; 23:195-228), (Di Girolamo N., et al., Invest Opthalmol Vis Sci. 2000; 41:671-679), (Di Girolamo N., et al., Invest Opthalmol Vis Sci. 2002; 43:3430-3437), (Nolan T, et al., Am J Pathol. 2003; 162:567-574), (Di Girolamo., et al., Invest Ophthalmol Vis Sci. 2003; 44:4705-4714). In some experiments, cells were pre-incubated with selective inhibitors of ERK1/2, JNK, and p38 MAPKs (Calbiochem, Calif.). These included 10 μM PD98059, 1 μM SB202190, and 1 μM SB203580, respectively. In addition, 1 μM hydrocortisone (Sigma, St Louis, […].) was added to some cells as a broad-spectrum negative regulator of cytokine production.
(§2) To determine whether surface receptors were involved in transmitting the UVB signal, some cells were pre-incubated for 1 hr with 0.1 μM PD153035 (Calbiochem), an inhibitor of the tyrosine kinase activity of the EGFR or with 0.1 μM AG1295 (Calbiochem) an inhibitor of the tyrosine kinase activity of the PDGFR. While in other experiments, cells were pre-treated with RA (0-0.1 μM; Sigma) or IFN-α (0-15,000 U; PBL Biomedical Laboratories, Piscataway, N.J.). This medium was replaced with PBS and monolayers irradiated with 20 mJ/cm^2 of UVB using FL20SE bulbs (Philips, Sydney, Australia) as previously reported (Di Girolamo N., et al. Prog Retin Eye Res. 2004; 23:195-228), (Di Girolamo N., et al., Invest Opthalmol Vis Sci. 2002; 43:3430-3437), (Nolan T, et al., Am J Pathol. 2003; 162:567-574), (Di Girolamo., et al., Invest Ophthalmol Vis Sci. 2003; 44:4705-4714). UVB light intensity was monitored and calibrated prior to each experiment with the aid of a radiometer IL1400A (International Light, Newburyport, Mass.). After each exposure, PEC were rinsed once with PBS and placed in fresh serum-free medium with the respective compounds, then incubated for a further 48 hrs. Supernatants were collected, cleared of any cell debris by centrifugation, and stored frozen in small aliquots at −70° C. The compounds used in these experiments were non-toxic at all doses tested.
(§3) Human IL-6, IL-8, and VEGF (Quantikine™; R&D Systems, Minneapoli, Minn.) were quantified using sandwich immunoassays. Cytokines in supernatants from control (mock irradiated), or UVB-exposed PEC were captured on antibody-coated 96-well plates, and detection performed precisely as directed by the manufacturer. The optical density of the reaction product was read at the appropriate wavelength using a microplate reader (Spectramax™ Plus, Molecular Devices, Sunnyvale, Calif.).
(§4) Cytokine levels in the culture supernatants were expressed as mean±standard deviation. Difference in cytokine level between control and UV treated cells was assessed by one-way analysis of variance, followed by the Newman-Keuls test for multiple comparisons of treatment groups with the control group. A commercial software package (Prism; GraphPad Software, San Diego, Calif.) was used for analysis.

VEGF = test: UVB-mediated induction of VEGF in pterygium epithelial cells, sandwich immunoassay of supernatants; type: cell-based, human; conditions: for VEGF production: PEC pre-incubated 1 hr with 0.1 μM inhibitor, supernatant after 48 hrs, UVB alone 166.5±11.0 pg/ml; for VEGF production / VEGF production post-radiation (effect in words): 20 mJ/cm^2 UVB; for VEGF production post-radiation (effect in words): 10 μM PD98059, 1 μM SB202190, 1 μM SB203580, 1 μM hydrocortisone
Method: as §1, §2, §3, §4

IL-8 = test: UVB-mediated induction of IL-8 in pterygium epithelial cells, sandwich immunoassay of supernatants; type: cell-based, human; conditions: for IL-8 levels / IL-8 production post-radiation (effect in words): 20 mJ/cm^2 UVB; for IL-8 levels: supernatant after 48 hrs, UVB alone 166.6±22.5 pg/ml; for IL-8 production post-radiation (effect in words): 10 μM PD98059, 1 μM SB202190, 1 μM SB203580, 1 μM hydrocortisone
Method: as §1, §2, §3, §4

[1] = topical ocular use; cited from earlier work
pterygium = conditions: retrospective study of 164 patients, pterygium surgery with associated treatment; cited from earlier work
[2] = PEC, single dose of UVB, several concentrations: RA 0-0.1 μM, IFN-α 0-15,000 U

Work on Cc1cc2ncc(-c3ccccc3)nc2cc1C [AG1295] yielded an IL-6 levels (IL-6; PEC pre-incubated 1 hr with 0.1 μM inhibitor, 20 mJ/cm^2 UVB, supernatant after 48 hrs, UVB alone 356.2±32.1) of 217 ± 42 pg/mL, a VEGF production (VEGF) of 132.7 ± 8.0 pg/mL and an IL-8 levels (IL-8; PEC pre-incubated 1 hr with 0.1 μM PD153035 (EGFR inhibitor) or 0.1 μM AG1295 (PDGFR inhibitor)) of 174 ± 60.3 pg/mL.
For C[C@]12CCC(=O)C=C1CC[C@@H]1[C@@H]2[C@@H](O)C[C@@]2(C)[C@H]1CC[C@]2(O)C(=O)CO [Hydrocortisone, hydrocortisone], the “IL-6 production post-radiation (effect in words)” value (from here on “IL-6 production post-radiation”) (IL-6; PEC, 20 mJ/cm^2 UVB) was “near control levels”, the “VEGF production post-radiation (effect in words)” value (“VEGF production post-radiation” below) (VEGF; PEC) was “near control levels” and the “IL-8 production post-radiation (effect in words)” value (shortened to “IL-8 production post-radiation”) (IL-8; PEC) was “near control levels”.
With COc1cccc(-c2cc(=O)c3ccccc3o2)c1N [PD98059] the “IL-6 production post-radiation” value (IL-6; PEC, 20 mJ/cm^2 UVB) was “significantly abrogated”, the “VEGF production post-radiation” value (VEGF; PEC) was “only partially, but significantly reduced” and the “IL-8 production post-radiation” value (IL-8; PEC) was “significantly abrogated”.
COc1cc2ncnc(Nc3cccc(Br)c3)c2cc1OC [PD153035] gave a VEGF production (VEGF) of 109.1 ± 1.5 pg/mL and an IL-8 levels (IL-8; PEC pre-incubated 1 hr with 0.1 μM inhibitor) of 74.4 ± 23.6 pg/mL.
For Oc1ccc(-c2nc(-c3ccncc3)c(-c3ccc(F)cc3)[nH]2)cc1 [SB202190], the “IL-6 production post-radiation” value (IL-6; PEC, 20 mJ/cm^2 UVB) was “significantly abrogated”, the “VEGF production post-radiation” value (VEGF; PEC) was “only partially, but significantly reduced” and the “IL-8 production post-radiation” value (IL-8; PEC) was “significantly abrogated”.
In the case of C[S+]([O-])c1ccc(-c2nc(-c3ccncc3)c(-c3ccc(F)cc3)[nH]2)cc1 (stereo not shown) [SB203580], the “IL-6 production post-radiation” value (IL-6; PEC, 20 mJ/cm^2 UVB) is reported as “significantly abrogated”, the “VEGF production post-radiation” value (VEGF; PEC) is reported as “only partially, but significantly reduced” and the “IL-8 production post-radiation” value (IL-8; PEC) is reported as “significantly abrogated”.
For CO[C@@]12[C@H](COC(N)=O)C3=C(C(=O)C(C)=C(N)C3=O)N1C[C@@H]1N[C@@H]12 [mitomyacin C], the complications [1] is listed as “corneoscleral melting, cataract and secondary glaucoma” and the pterygium regrowth (pterygium) is listed as 8.74%.
For IFN-α, the “IL-6 protein production (effect in words)” value (IL-6; [2]) was “dose-dependently inhibited”, the “UVB-mediated induction of VEGF (effect in words)” value (VEGF; [2]) was “no significant inhibitory effect” and the “IL-8 protein production (effect in words)” value (IL-8; [2]) was “dose-dependently inhibited”.
